Laboratory results as given in patent US20090047672A1, “Telomerase RNA Subunit and Methods of Use Thereof” (priority 2005, published 2009).

Tested on: H2AX
Assay: Immunoblotting of DNA damage response (H2AX phosphorylation)
Type: cell-based, human
Conditions: BJ fibroblasts expressing control shRNA, 10 μM for 4 hrs
From the text: The antibodies used in this study included: rabbit anti-H2AX (Novus); rabbit anti—H2AX (Upstate Biotechnology); rabbit anti-H2B (Upstate Biotechnology); mouse anti-H3 (Upstate Biotechnology); rabbit anti-H4 (Upstate Biotechnology); rabbit anti-macro H2A.1 (Upstate Biotechnology); rabbit anti-dimethyl H3 (K9) (Upstate Biotechnology); rabbit anti-acetyl H3 (Lys9) (Upstate Biotechnology); rabbit anti-acetyl H4 (K12) (Upstate Biotechnology); goat anti-phospho-specific BRCA1 (Ser1497) (Santa Cruz); rabbit anti-ATM-pS1981 (Rockland); rabbit anti-ATM-S1981 (Rockland); and mouse anti-p53 (Ab6) (Oncogene). Cells were lysed in RIPA buffer (12.5 mM NaPO4, pH7.2, 2 mM EDTA, 50 mM NaF, 1.25% NP-40, 1.25% SDS, 0.1 mM DTT) except when specific conditions are noted. For extraction under low salt conditions, cells were lysed in a buffer comprised of 20 mM Tris-HCl, pH 7.4, 150 mM NaCl, 0.1% NP40, 0.1 mM DTT. For high salt condition extraction, cells were lysed in a buffer composed of 20 mM Tris-HCl, pH 7.4, 500 mM NaCl, 0.5% NP40, 0.1 mM DTT. For acid precipitation of histones, cells were homogenized in 0.2 N H2SO4 and centrifuged. Histones were precipitated by adding ¼ volume of 100% (w/v) TCA. The pellets were suspended in 100% ethanol and centrifuged again at 13,000×g. 10 μg of protein was subjected to immunoblotting.

In the case of `CCc1c2c(nc3ccc(OC(=O)N4CCC(N5CCCCC5)CC4)cc13)-c1cc3c(c(=O)n1C2)COC(=O)[C@]3(O)CC` [irinotecan], the “Phosphorylation of H2AX after treatment with chemotherapeutic agent” value is reported as “induced phosphorylation of H2AX”.
